Data as given in ChEMBL document CHEMBL1201862, “PubChem BioAssay data set” (2004).
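Each compound was tested at five concentrations against cells in 96-well plates for 48 hours. GI50 = concentration required for 50% inhibition of growth.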 The source made the active and inactive calls. Cut-off read from the data, not from the text of the source: active = GI50 up to about 1.1 µM and inactive = higher.

Tests used:
Test in all cases: NCI tumour cell line growth inhibition, 48 h
786-0 = test system: 786-0
TK-10 = test system: TK-10
A549 = test system: A549
M14 = test system: M14
SNB-78 = test system: SNB-78
RPMI-8226 = test system: RPMI-8226
HL-60 = test system: HL-60
CAKI-1 = test system: CAKI-1
CCRF-CEM = test system: CCRF-CEM
SK-MEL-2 = test system: SK-MEL-2
RXF 631 = test system: RXF 631
UACC-62 = test system: UACC-62
LXFL 529 = test system: LXFL 529
UO-31 = test system: UO-31
OVCAR-3 = test system: OVCAR-3
SF-539 = test system: SF-539
SF-295 = test system: SF-295
DLD-1 = test system: DLD-1
MOLT-4 = test system: MOLT-4
ACHN = test system: ACHN
HOP-18 = test system: HOP-18
U-251 = test system: U-251
EKVX = test system: EKVX
OVCAR-8 = test system: OVCAR-8
HCT-116 = test system: HCT-116
SK-MEL-28 = test system: SK-MEL-28
Malme-3M = test system: Malme-3M
KM-20L2 = test system: KM-20L2
HCT-15 = test system: HCT-15
NCI-H226 = test system: NCI-H226
IGROV-1 = test system: IGROV-1
DMS-273 = test system: DMS-273
OVCAR-5 = test system: OVCAR-5
SF-268 = test system: SF-268
OVCAR-4 = test system: OVCAR-4
SK-MEL-5 = test system: SK-MEL-5
RXF 393 = test system: RXF 393
A498 = test system: A498
HOP-62 = test system: HOP-62
SNB-19 = test system: SNB-19
KM12 = test system: KM12
COLO 205 = test system: COLO 205
SW-620 = test system: SW-620
M19-MEL = test system: M19-MEL
SNB-75 = test system: SNB-75
LOX IMVI = test system: LOX IMVI
HCC 2998 = test system: HCC 2998
K562 = test system: K562
HOP-92 = test system: HOP-92
NCI-H522 = test system: NCI-H522
NCI-H23 = test system: NCI-H23
UACC-257 = test system: UACC-257
SN12C = test system: SN12C
HT-29 = test system: HT-29
DMS-114 = test system: DMS-114
NCI-H460 = test system: NCI-H460

Q: Which GI50 (786-0) does the source give for `CCC1(CN(C)C)CC/C(=C\c2ccc3c(c2)OCO3)C1=O` (stereo not given) here?
A: > 100 µM (inactive)

Q: And the GI50 (TK-10)?
A: > 100 µM (inactive)

Q: And the GI50 (A549)?
A: > 100 µM (inactive)

Q: And the GI50 (M14)?
A: > 100 µM (inactive)

Q: What about the GI50 (SNB-78) of the same compound?
A: > 100 µM (inactive)

Q: What about the GI50 (RPMI-8226) of the same compound?
A: 40.7 µM (inactive)

Q: What about the GI50 (HL-60) of the same compound?
A: 11.4 µM (inactive)

Q: What about the GI50 (CAKI-1) of the same compound?
A: > 100 µM (inactive)

Q: And the GI50 (CCRF-CEM)?
A: 48.6 µM (inactive)

Q: And the GI50 (SK-MEL-2)?
A: > 100 µM (inactive)

Q: And the GI50 (RXF 631)?
A: > 100 µM (inactive)

Q: What about the GI50 (UACC-62) of the same compound?
A: > 100 µM (inactive)

Q: What about the GI50 (LXFL 529) of the same compound?
A: > 100 µM (inactive)

Q: What about the GI50 (UO-31) of the same compound?
A: 91.8 µM (inactive)

Q: What about the GI50 (OVCAR-3) of the same compound?
A: > 100 µM (inactive)

Q: And the GI50 (SF-539)?
A: > 100 µM (inactive)

Q: What about the GI50 (SF-295) of the same compound?
A: > 100 µM (inactive)

Q: What about the GI50 (DLD-1) of the same compound?
A: 82.2 µM (inactive)

Q: What about the GI50 (MOLT-4) of the same compound?
A: > 100 µM (inactive)

Q: What about the GI50 (ACHN) of the same compound?
A: > 100 µM (inactive)

Q: What about the GI50 (HOP-18) of the same compound?
A: > 100 µM (inactive)

Q: What about the GI50 (U-251) of the same compound?
A: > 100 µM (inactive)

Q: What about the GI50 (EKVX) of the same compound?
A: 52.1 µM (inactive)

Q: What about the GI50 (OVCAR-8) of the same compound?
A: 91.6 µM (inactive)

Q: What about the GI50 (HCT-116) of the same compound?
A: > 100 µM (inactive)

Q: What about the GI50 (SK-MEL-28) of the same compound?
A: > 100 µM (inactive)

Q: And the GI50 (Malme-3M)?
A: > 100 µM (inactive)

Q: What about the GI50 (KM-20L2) of the same compound?
A: 47.2 µM (inactive)

Q: And the GI50 (HCT-15)?
A: > 100 µM

Q: And the GI50 (NCI-H226)?
A: > 100 µM (inactive)

Q: What about the GI50 (IGROV-1) of the same compound?
A: > 100 µM (inactive)

Q: What about the GI50 (DMS-273) of the same compound?
A: > 100 µM (inactive)

Q: And the GI50 (OVCAR-5)?
A: > 100 µM (inactive)

Q: What about the GI50 (SF-268) of the same compound?
A: > 100 µM (inactive)

Q: What about the GI50 (OVCAR-4) of the same compound?
A: > 100 µM (inactive)

Q: What about the GI50 (SK-MEL-5) of the same compound?
A: 62.5 µM (inactive)

Q: What about the GI50 (RXF 393) of the same compound?
A: > 100 µM (inactive)

Q: And the GI50 (A498)?
A: > 100 µM (inactive)

Q: What about the GI50 (HOP-62) of the same compound?
A: > 100 µM (inactive)

Q: And the GI50 (SNB-19)?
A: > 100 µM (inactive)

Q: What about the GI50 (KM12) of the same compound?
A: > 100 µM (inactive)

Q: What about the GI50 (COLO 205) of the same compound?
A: > 100 µM (inactive)

Q: And the GI50 (SW-620)?
A: > 100 µM (inactive)

Q: And the GI50 (M19-MEL)?
A: > 100 µM (inactive)

Q: What about the GI50 (SNB-75) of the same compound?
A: > 100 µM (inactive)

Q: And the GI50 (LOX IMVI)?
A: > 100 µM (inactive)

Q: What about the GI50 (HCC 2998) of the same compound?
A: > 100 µM (inactive)

Q: And the GI50 (K562)?
A: 65.9 µM (inactive)

Q: And the GI50 (HOP-92)?
A: > 100 µM (inactive)

Q: What about the GI50 (NCI-H522) of the same compound?
A: 49.9 µM (inactive)

Q: What about the GI50 (NCI-H23) of the same compound?
A: > 100 µM (inactive)

Q: And the GI50 (UACC-257)?
A: > 100 µM (inactive)

Q: And the GI50 (SN12C)?
A: > 100 µM (inactive)

Q: And the GI50 (HT-29)?
A: 65.2 µM (inactive)

Q: `O=C(O)C1NCCc2c1[nH]c1ccccc21` (stereo not given) was tested. Which GI50 (SNB-78) did it give?
A: > 100 µM (inactive)

Q: What about the GI50 (SK-MEL-2) of the same compound?
A: > 100 µM (inactive)

Q: And the GI50 (RXF 631)?
A: > 100 µM (inactive)

Q: What about the GI50 (LXFL 529) of the same compound?
A: > 100 µM (inactive)

Q: And the GI50 (UO-31)?
A: > 100 µM (inactive)

Q: And the GI50 (SF-295)?
A: > 100 µM (inactive)

Q: And the GI50 (DLD-1)?
A: > 100 µM (inactive)

Q: And the GI50 (HOP-18)?
A: > 100 µM (inactive)

Q: And the GI50 (DMS-114)?
A: > 100 µM (inactive)

Q: And the GI50 (NCI-H460)?
A: > 100 µM (inactive)

Q: And the GI50 (KM-20L2)?
A: > 100 µM (inactive)

Q: And the GI50 (NCI-H226)?
A: > 100 µM (inactive)

Q: What about the GI50 (DMS-273) of the same compound?
A: > 100 µM (inactive)

Q: What about the GI50 (OVCAR-5) of the same compound?
A: > 100 µM (inactive)

Q: What about the GI50 (M19-MEL) of the same compound?
A: > 100 µM (inactive)

Q: And the GI50 (LOX IMVI)?
A: > 100 µM (inactive)
